Consider 1 compound from article PMC5958115, “A novel small molecule chaperone of rod opsin and its potential therapy for retinal degeneration” (Nature Communications, 2018).

Data set [1] deals with S. typhimurium TA1535, TA97a, TA98, TA100 and E. coli WP2. The data set is described as follows: Micro Ames bacterial mutation test, five strains, with or without S9. Conditions: 0.075-250 µg per well. The method, then: To determine the potential genotoxicity of YC-001, a Micro Ames test was performed by the Charles River Laboratories, Inc. The S9 microsomal fraction was obtained from Moltox Molecular Toxicology, Inc. (Boone, NC, USA). A premixture was prepared including 25 µL of S9 mix (10% v/v S9 fraction in 8 mM MgCl2, 33 mM KCl, 100 mM sodium phosphate buffer, pH 7.4, +S9) or phosphate buffer (0.2 M sodium phosphate, pH 7.4, no S9), 5 µL of bacterial culture (>1000 × 10^6 bacteria mL^−1) and 100 µL of molten top agar supplemented with 0.05 mM biotin and minimal histidine (0.05 mM) and minimal tryptophan (0.05 mM). The 24-well plates were prepared by adding 1.3 mL of minimal bottom agar (1.3% agar, Vogel-Bonner medium E and 0.25% glucose) to each well. A 10 µL aliquot of YC-001 working solution/negative/positive control was added to each well followed by addition of 130 µL of the premixture. The plates kept on a leveled surface for 1 h while the top agar solidified, then were incubated at 37 °C for 72 h. After this period, plates were stored at 4 °C before revertant colony counts were manually recorded using an inverted microscope. […]

Data set [2] can be described thus: Quantification of YC-001 in mouse eye by HPLC. The class given is in vivo, C57BL/6 mouse. As to the method: To measure the amount of YC-001 in the eye following systemic delivery, YC-001 was administered to C57BL/6 mice by i.p. injection at a dose of 200 mg kg^−1 bw. Mice then were euthanized at 30 min, 3 h and 24 h after these injections, and their eyes were removed for analysis. Eyes from two mice under the same treatment were homogenized on ice in 1 mL of PBS:methanol (1:1 ratio). Four-mL of hexanes were then added to the homogenized sample, and the mixture was vortexed for 15 s. The mixture was centrifuged at 3,220×g for 15 min at 4 °C to separate the hexanes from the aqueous layer. From the top hexane layer, 3.5 mL was transferred to a glass vial. This sample was then dried in a Savant speed vacuum concentrator (Thermofisher, Waltham, Massachusetts, USA) and dissolved in 300 µL methanol. One hundred-µL of dissolved sample were injected into an HPLC system connected to an Agilent Sil column (5 μm, 4.6 × 250 mm; Agilent Technologies, Santa Clara, CA) for separation with 10% ethyl acetate in hexanes at a flow rate 1.4 mL min^−1. A chromatogram of absorption at 340 nm was then obtained. A YC-001 standard was subjected to the same procedures as the ocular samples and used to establish a retention time at 13.2 min. By comparing ocular samples to its standard curve of YC-001, the amount of YC-001 was then quantified in pmol per eye at different time points after its systemic administration. The identity of YC-001 in the peak fraction with a retention time of […] was confirmed by LC–MS using the same chromatography method as applied for HPLC.

Regarding `O=C1OCC(c2ccc(Cl)s2)=C1c1cccs1` [YC-001], in data set [1], the Ames test result is on record as “negative”. Besides, the “amount of YC-001 in eye” value in data set [2] (0.5 h after i.p. 200 mg kg^−1 bw) was “About 70 pmol per eye”; in data set [2] (3 h after i.p. 200 mg kg^−1 bw), 280 pmol per eye; in data set [2] (24 h after i.p. 200 mg kg^−1 bw), “undetectable”.
